Assay results taken from patent US11603373B2, “TDO2 and IDO1 inhibitors” (Genentech, Inc., priority 2017, dated 2023).

Experiments:
[1] = target: T1, IDO1 (A172+IFNg cells, high IDO expressing cells) (Homo sapiens, UniProt P14902); assay: NFK GreenScreen cell assay, inhibition of IDO in A172+IFNg cells; format: cell-based; settings: read-out: IDO cell Fluor EC50
T1 construct: A172+IFNg cells (high IDO expressing cells); endogenous in cells; host or cells: A172 cells induced with 100 ng/ml IFNγ
Description: (§1) Cells are counted on a Vi-Cell (Beckman Coulter). […] The final DMSO concentration is 0.5%.

[2] = target: T2, TDO2 (SW48 cells, high TDO expressing cells) (Homo sapiens, UniProt P48775); assay: NFK GreenScreen cell assay, inhibition of TDO in SW48 cells; format: cell-based; settings: read-out: TDO2 Cell Fluor EC50
T2 construct: SW48 cells (high TDO expressing cells); endogenous in cells; host or cells: SW48 cells
T2 sequence (P48775 whole entry): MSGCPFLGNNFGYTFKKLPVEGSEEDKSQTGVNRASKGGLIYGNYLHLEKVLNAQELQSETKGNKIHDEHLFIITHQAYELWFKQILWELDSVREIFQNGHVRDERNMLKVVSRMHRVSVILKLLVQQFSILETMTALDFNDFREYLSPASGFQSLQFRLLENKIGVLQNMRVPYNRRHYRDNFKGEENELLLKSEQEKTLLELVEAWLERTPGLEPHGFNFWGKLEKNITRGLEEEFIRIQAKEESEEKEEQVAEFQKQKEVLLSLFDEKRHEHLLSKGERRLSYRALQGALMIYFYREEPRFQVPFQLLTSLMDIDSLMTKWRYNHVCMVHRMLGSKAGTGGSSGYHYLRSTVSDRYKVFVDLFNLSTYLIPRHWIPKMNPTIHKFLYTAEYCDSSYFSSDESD
Description: as §1

T1 sequence (P14902 whole entry): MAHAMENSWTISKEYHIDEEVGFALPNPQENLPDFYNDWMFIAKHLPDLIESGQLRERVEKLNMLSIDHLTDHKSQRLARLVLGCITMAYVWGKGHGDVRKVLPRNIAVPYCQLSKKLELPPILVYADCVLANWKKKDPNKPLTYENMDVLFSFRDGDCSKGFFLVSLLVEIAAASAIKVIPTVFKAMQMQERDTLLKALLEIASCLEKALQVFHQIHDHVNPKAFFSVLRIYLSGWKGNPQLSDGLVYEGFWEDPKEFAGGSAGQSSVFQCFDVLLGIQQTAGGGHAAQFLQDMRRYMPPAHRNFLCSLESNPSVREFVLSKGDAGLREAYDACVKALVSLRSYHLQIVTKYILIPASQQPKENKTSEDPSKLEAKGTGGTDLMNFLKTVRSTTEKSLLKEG

SMILES | EC50 [1] | EC50 [2]
CC(C)(C)OC(=O)N1CC2CCC(C1)C21C[C@@H]([C@H]2c3ccccc3-c3cncn32)[C@@H]1O (stereo partly drawn) [Example 22h, tert-butyl (2′S,3′S)-2′-hydroxy-3′-((S)-5H-imidazo[5,1-a]isoindol-5-yl)-3-azaspiro[bicyclo[3.2.1]octane-8,1′-cyclobutane]-3-carboxylate] | 2.8 µM | 4 µM
CC(C)(C)OC(=O)N1CC2CCC(C1)C21C[C@H]([C@@H]2c3ccccc3-c3cncn32)[C@@H]1O (relative stereo) [Example 22a, tert-butyl (2′S,3′R)-2′-hydroxy-3′-((R)-5H-imidazo[5,1-a]isoindol-5-yl)-3-azaspiro[bicyclo[3.2.1]octane-8,1′-cyclobutane]-3-carboxylate] | 2.1 µM | 0.41 µM
CC(C)(C)OC(=O)N[C@H]1CC[C@@]2(CC1)C[C@@H]([C@@H]1c3ccccc3-c3cncn31)[C@H]2O (single isomer, unassigned) [Example 24d] | 1.1 µM | 2.5 µM
CC(C)(C)OC(=O)N1CCC2(CC[C@@H]([C@@H]3c4ccccc4-c4cncn43)[C@@H]2O)CC1 (single isomer, unassigned) [Example 2a] | 6.6 µM | 15 µM
Cn1ccc(S(=O)(=O)N2CCC3(CC2)CC(C2c4ccccc4-c4cncn42)C3O)n1 (centres unmarked) [compound 44, 2-(5H-imidazo[1,5-b]isoindol-5-yl)-7-(1-methylpyrazol-3-yl)sulfonyl-7-azaspiro[3.5]nonan-3-ol] | 0.082 µM | 0.28 µM
CC(C)(C)OC(=O)N1[C@@H]2CC[C@H]1C[C@@]1(C[C@H]([C@H]3c4ccccc4-c4cncn43)[C@H]1O)C2 (single isomer, unassigned) [Example 12f] | 1.9 µM | 11 µM
Cc1nc(S(=O)(=O)N2CCC3(CC2)C[C@@H]([C@H]2c4ccccc4-c4cncn42)[C@H]3O)cn1C [compound 30] | 0.32 µM | 0.49 µM
CC(C)(C)OC(=O)N1CC2(CC[C@H]([C@@H]3c4ccccc4-c4cncn43)[C@H]2O)C1 (single isomer, unassigned) [Example 3f] | 0.17 µM | 0.13 µM
O=C(CN1CCCCC1=O)N1CCC2(CC1)CC(C1c3ccccc3-c3cncn31)C2O (centres unmarked) [compound 39, 1-[2-[3-hydroxy-2-(5H-imidazo[1,5-b]isoindol-5-yl)-7-azaspiro[3.5]nonan-7-yl]-2-oxo-ethyl]piperidin-2-one] | 3.3 µM | 3.9 µM
CC(C)(C)OC(=O)N1CC2(CC[C@@H]([C@@H]3c4ccccc4-c4cncn43)[C@H]2O)C1 (single isomer, unassigned) [Example 3g] | 8.2 µM | 14 µM
CC(C)(C)OC(=O)N[C@H]1CC[C@@]2(CC1)C[C@@H]([C@H]1c3ccccc3-c3cncn31)[C@@H]2O (single isomer, unassigned) [Example 24j] | 0.64 µM | 0.14 µM
CN1CC(C(=O)N2CCC3(CC2)CC(C2c4ccccc4-c4cncn42)C3O)CC1=O (centres unmarked) [compound 53, 4-[3-hydroxy-2-(5H-imidazo[1,5-b]isoindol-5-yl)-7-azaspiro[3.5]nonane-7-carbonyl]-1-methyl-pyrrolidin-2-one] | 6.7 µM | 9.9 µM
CC(C)(C)OC(=O)N1[C@@H]2CC[C@H]1C[C@@]1(C[C@@H]([C@H]3c4ccccc4-c4cncn43)[C@H]1O)C2 (single isomer, unassigned) [Example 12b] | 8.1 µM | 21 µM
NS(=O)(=O)N1CCC2(CC[C@@H]([C@H]3c4ccccc4-c4cncn43)[C@H]2O)CC1 (single isomer, unassigned) [Example 4c] | 6.2 µM | 4.6 µM
CS(=O)(=O)N1CCC2(CC1)C[C@H]([C@H]1c3ccccc3-c3cncn31)[C@@H]2O (single isomer, unassigned) [Example 6f] | 0.024 µM | 0.12 µM
CS(=O)(=O)N1CCC2(CC1)C[C@@H]([C@H]1c3ccccc3-c3cncn31)[C@@H]2O (single isomer, unassigned) [Example 6d] | 9.3 µM | 0.54 µM
CC(C)(C)OC(=O)N1[C@@H]2CC[C@H]1C[C@]1(C[C@H]([C@@H]3c4ccccc4-c4cncn43)[C@@H]1O)C2 [Example 12a, tert-butyl (1R,2′S,3r,3′R,5S)-2′-hydroxy-3′-((R)-5H-imidazo[5,1-a]isoindol-5-yl)-8-azaspiro[bicyclo[3.2.]octane-3,1′-cyclobutane]-8-carboxylate] | 0.92 µM | 1.2 µM
N#CCS(=O)(=O)N1CCC2(CC1)C[C@H]([C@@H]1c3ccccc3-c3cncn31)[C@@H]2O [Example 21c, (2R,3S)-2-[[3-hydroxy-2-((5R)-5H-imidazo[1,5-b]isoindol-5-yl)-7-azaspiro[3.5]nonan-7-yl]sulfonyl]acetonitrile] | 4.8 µM | 5.9 µM
CC(C)(C)OC(=O)N[C@H]1CC[C@@]2(CC1)C[C@H]([C@@H]1c3ccccc3-c3cncn31)[C@@H]2O (single isomer, unassigned) [Example 24p] | 0.92 µM | 3.3 µM

SMILES | EC50 [1] | EC50 [2]
CC(C)(C)OC(=O)N1CCC2(CC1)C[C@@H]([C@H]1c3ccccc3-c3cncn31)[C@H]2O (single isomer, unassigned) [Example 1b] | 0.0279 µM | 0.3 µM
CC(C)(C)OC(=O)N1CC2CCC(C1)C21C[C@H]([C@@H]2c3ccccc3-c3cncn32)[C@H]1O (stereo partly drawn) [Example 22g, tert-butyl (2′R,3′R)-2′-hydroxy-3′-((R)-5H-imidazo[5,1-a]isoindol-5-yl)-3-azaspiro[bicyclo[3.2.1]octane-8,1-cyclobutane]-3-carboxylate] | 0.041 µM | 0.16 µM
CC(C)(C)OC(=O)N1CC2(CC[C@H]([C@H]3c4ccccc4-c4cncn43)[C@H]2O)C1 (single isomer, unassigned) [Example 3d] | 4 µM | 0.13 µM
Cc1nn(C)c(C)c1S(=O)(=O)N1CCC2(CC1)CC(C1c3ccccc3-c3cncn31)C2O (centres unmarked) [compound 27, 2-(5H-imidazo[1,5-b]isoindol-5-yl)-7-(1,3,5-trimethylpyrazol-4-yl)sulfonyl-7-azaspiro[3.5]nonan-3-ol] | 0.03 µM | 0.14 µM
CN1CCC(C(=O)N2CCC3(CC2)CC(C2c4ccccc4-c4cncn42)C3O)CC1=O (centres unmarked) [compound 40, 4-[3-hydroxy-2-(5H-imidazo[1,5-b]isoindol-5-yl)-7-azaspiro[3.5]nonane-7-carbonyl]-1-methyl-piperidin-2-one] | 7 µM | 9.2 µM
O=S(=O)(CF)N1CCC2(CC1)C[C@@H]([C@H]1c3ccccc3-c3cncn31)[C@H]2O (single isomer, unassigned) [Example 8b] | 0.048 µM | 0.12 µM
CC(C)(C)OC(=O)N1[C@@H]2CC[C@H]1C[C@@]1(C[C@H]([C@H]3c4ccccc4-c4cncn43)[C@@H]1O)C2 (single isomer, unassigned) [Example 12k] | 13 µM | 15 µM
CC(=O)N(C)c1ccc(S(=O)(=O)N2CCC3(CC2)C[C@@H]([C@H]2c4ccccc4-c4cncn42)[C@H]3O)cc1 [compound 34, N-[4-[[3-hydroxy-2-(5H-imidazo[1,5-b]isoindol-5-yl)-7-azaspiro[3.5]nonan-7-yl]sulfonyl]phenyl]-N-methyl-acetamide] | 0.032 µM | 0.48 µM
CC(C)(C)OC(=O)N1CC2(CC[C@@H]([C@@H]3c4ccccc4-c4cncn43)[C@@H]2O)C1 (single isomer, unassigned) [Example 3c] | 13 µM | 14 µM
O=S(=O)(C1COC1)N1CCC2(CC1)CC(C1c3ccccc3-c3cncn31)C2O (centres unmarked) [Example 23a, 2-(5H-imidazo[1,5-b]isoindol-5-yl)-7-(oxetan-3-ylsulfonyl)-7-azaspiro[3.5]nonan-3-ol] | 0.15 µM | 0.33 µM
CC(C)(C)OC(=O)N1CCC2(CC[C@H]([C@@H]3c4ccccc4-c4cncn43)[C@@H]2O)CC1 (single isomer, unassigned) [Example 2d] | 1.6 µM | 3.7 µM
CS(=O)(=O)N1CC2CCC(C1)C21CC(C2c3ccccc3-c3cncn32)C1O (single isomer, unassigned) [compound 70, 3′(5H-imidazo[5,1-a]isoindol-5-yl)-3-(methylsulfonyl)-3-azaspiro[bicyclo[3.2.1]octane-8,1′-cyclobutan]-2′-ol] | 0.15 µM | 0.14 µM
CS(=O)(=O)N1CCC2(CC1)C[C@@H]([C@@H]1c3ccccc3-c3cncn31)[C@H]2O (single isomer, unassigned) [Example 6e] | 3.2 µM | 6.8 µM
O=S(=O)(C1CCC1)N1CCC2(CC1)C[C@@H]([C@H]1c3ccccc3-c3cncn31)[C@H]2O [compound 36, 7-cyclobutylsulfonyl-2-(5H-imidazo[1,5-b]isoindol-5-yl)-7-azaspiro[3.5]nonan-3-ol] | 0.035 µM | 0.15 µM
Cc1cc(CC(=O)N2CCC3(CC2)CC(C2c4ccccc4-c4cncn42)C3O)on1 (centres unmarked) [compound 63, 1-[3-hydroxy-2-(5H-imidazo[1,5-b]isoindol-5-yl)-7-azaspiro[3.5]nonan-7-yl]-2-(3-methylisoxazol-5-yl)ethanone] | 0.16 µM | 0.31 µM
NS(=O)(=O)N1CCC2(CC1)C[C@H]([C@@H]1c3ccccc3-c3cncn31)[C@@H]2O (single isomer, unassigned) [Example 11a] | 20 µM | 0.66 µM
O=C(NCC(F)F)N1CCC2(CC1)C[C@@H]([C@H]1c3ccccc3-c3cncn31)[C@H]2O [compound 58, N-(2,2-difluoroethyl)-3-hydroxy-2-(5H-imidazo[1,5-b]isoindol-5-yl)-7-azaspiro[3.5]nonane-7-carboxamide] | 0.35 µM | 0.34 µM
CS(=O)(=O)N1CCC2(CC[C@@H]([C@H]3c4ccccc4-c4cncn43)[C@H]2O)CC1 (single isomer, unassigned) [Example 7c] | 0.115 µM | 0.133 µM
